Data: US10221179B2, “Substituted pyrazoloquinazolinones and pyrroloquinazolinones as allosteric modulators of group II metabotropic glutamate receptors” (DOMAIN THERAPEUTICS, priority 2014, dated 2019)

melting point | Structure (SMILES)
> 250 °C | Cn1c(=O)c2ccc(C3CC3)cc2n2nc(-c3ccnc(C(F)(F)F)c3)cc12 [Example 73, 8-Cyclopropyl-4-methyl-2-(2-trifluoromethyl-pyridin-4-yl)-4H-pyrazolo[1,5-a]quinazolin-5-one]
246 to 250 °C | Cn1c(=O)c2ccc(C3CCCC3)cc2n2nc(-c3ccnc(C(F)(F)F)c3)cc12 [Example 74, 8-Cyclopentyl-4-methyl-2-(2-trifluoromethyl-pyridin-4-yl)-4H-pyrazolo[1,5-a]quinazolin-5-one]
> 250 °C | Cn1c(=O)c2ccc(C#N)cc2n2nc(-c3ccnc(C(F)(F)F)c3)cc12 [Example 75, 4-Methyl-5-oxo-2-(2-trifluoromethyl-pyridin-4-yl)-4,5-dihydro-pyrazolo[1,5-a]quinazoline-8-carbonitrile]
> 250 °C | Cn1c(=O)c2ccc(C(=O)O)cc2n2nc(-c3ccnc(C(F)(F)F)c3)cc12 [Example 76, 4-Methyl-5-oxo-2-(2-trifluoromethyl-pyridin-4-yl)-4,5-dihydro-pyrazolo[1,5-a]quinazoline-8-carboxylic Acid]
128 to 134 °C | Cn1c(=O)c2ccc(OCCO)cc2n2nc(-c3ccnc(C(F)(F)F)c3)cc12 [Example 83, 8-(2-Hydroxy-ethoxy)-4-methyl-2-(2-trifluoromethyl-pyridin-4-yl)-4H-pyrazolo[1,5-a]quinazolin-5-one]
> 250 °C | COc1cccc2c(=O)n(C)c3cc(-c4ccnc(C(F)(F)F)c4)nn3c12 [Example 86, 9-Methoxy-4-methyl-2-(2-trifluoromethyl-pyridin-4-yl)-4H-pyrazolo[1,5-a]quinazolin-5-one]
235 to 245 °C | COc1ccc2c(c1)c(=O)n(C)c1cc(-c3ccnc(F)c3)nn21 [Example 101, 2-(2-Fluoro-pyridin-4-yl)-7-methoxy-4-methyl-4H-pyrazolo[1,5-a]quinazolin-5-one]
195 to 199 °C | Cn1cc(-c2cc3n(C)c(=O)c4ccccc4n3n2)cn1 [Example 103, 4-Methyl-2-(1-methyl-1H-pyrazol-4-yl)-4H-pyrazolo[1,5-a]quinazolin-5-one]
244 to 247 °C | Cn1c(=O)c2ccccc2n2nc(-c3ccncc3F)cc12 [Example 107, 2-(3-Fluoro-pyridin-4-yl)-4-methyl-4H-pyrazolo[1,5-a]quinazolin-5-one]
145 to 150 °C | Cc1cnccc1-c1cc2n(C)c(=O)c3ccccc3n2n1 [Example 109, 4-Methyl-2-(3-methyl-pyridin-4-yl)-4H-pyrazolo[1,5-a]quinazolin-5-one]
223 to 226 °C | Cn1c(=O)c2ccc(OCCCO)cc2n2nc(-c3ccnc(C(F)(F)F)c3)cc12 [Example 111, 8-(3-Hydroxy-propoxy)-4-methyl-2-(2-trifluoromethyl-pyridin-4-yl)-4H-pyrazolo[1,5-a]quinazolin-5-one]
230 to 235 °C | Cn1c(=O)c2ccc(F)cc2n2nc(-c3ccnc(C4CC4)c3)cc12 [Example 112, 2-(2-Cyclopropyl-pyridin-4-yl)-8-fluoro-4-methyl-4H-pyrazolo[1,5-a]quinazolin-5-one]
> 250 °C | Cn1c(=O)c2cc(F)c(N3CCC34CCC(CO)CC4)cc2n2nc(-c3ccnc(C(F)(F)F)c3)cc12 (stereo not shown) [Example 123, 7-Fluoro-8-(7-hydroxymethyl-1-aza-spiro[3.5]non-1-yl)-4-methyl-2-(2-trifluoromethyl-pyridin-4-yl)-4H-pyrazolo[1,5-a]quinazolin-5-one]
> 250 °C | Cn1c(=O)c2ccc(N3CCCC(O)C3)cc2n2nc(-c3ccnc(C(F)(F)F)c3)cc12 (stereo not shown) [Example 124, 8-(3-Hydroxy-piperidin-1-yl)-4-methyl-2-(2-trifluoromethyl-pyridin-4-yl)-4H-pyrazolo[1,5-a]quinazolin-5-one]
> 250 °C | Cn1c(=O)c2ccc(NCC(C)(C)O)cc2n2nc(-c3ccnc(C(F)(F)F)c3)cc12 [Example 126, 8-(2-Hydroxy-2-methyl-propylamino)-4-methyl-2-(2-trifluoromethyl-pyridin-4-yl)-4H-pyrazolo[1,5-a]quinazolin-5-one]

The next lines start with the compound.

Structure (SMILES) | melting point
Cn1c(=O)c2cc(OC(F)(F)F)ccc2n2nc(-c3ccnc(C(F)(F)F)c3)cc12 [Example 52, 4-Methyl-7-trifluoromethoxy-2-(2-trifluoromethyl-pyridin-4-yl)-4H-pyrazolo[1,5-a]quinazolin-5-one] | 240 to 245 °C
Cn1c(=O)c2cc(S(C)(=O)=O)ccc2n2nc(-c3ccnc(C(F)(F)F)c3)cc12 [Example 53, 7-Methanesulfonyl-4-methyl-2-(2-trifluoromethyl-pyridin-4-yl)-4H-pyrazolo[1,5-a]quinazolin-5-one] | > 250 °C
COc1ccc2c(=O)n(C)c3cc(-c4ccnc(C(F)(F)F)c4)nn3c2c1 [Example 54, 8-Methoxy-4-methyl-2-(2-trifluoromethyl-pyridin-4-yl)-4H-pyrazolo[1,5-a]quinazolin-5-one] | > 250 °C
Cn1c(=O)c2ccc(N3CCOCC3)cc2n2nc(-c3ccnc(C(F)(F)F)c3)cc12 [Example 59, 4-Methyl-8-morpholin-4-yl-2-(2-trifluoromethyl-pyridin-4-yl)-4H-pyrazolo[1,5-a]quinazolin-5-one] | > 250 °C
Cn1c(=O)c2ccc(N3CCCC3)cc2n2nc(-c3ccnc(C(F)(F)F)c3)cc12 [Example 60, 4-Methyl-8-pyrrolidin-1-yl-2-(2-trifluoromethyl-pyridin-4-yl)-4H-pyrazolo[1,5-a]quinazolin-5-one] | > 250 °C
COC1CCN(c2ccc3c(=O)n(C)c4cc(-c5ccnc(C(F)(F)F)c5)nn4c3c2)CC1 [Example 62, 8-(4-Methoxy-piperidin-1-yl)-4-methyl-2-(2-trifluoromethyl-pyridin-4-yl)-4H-pyrazolo[1,5-a]quinazolin-5-one] | > 250 °C
Cn1c(=O)c2ccc(N3CCC(CO)CC3)cc2n2nc(-c3ccnc(C(F)(F)F)c3)cc12 [Example 67, 8-(4-Hydroxymethyl-piperidin-1-yl)-4-methyl-2-(2-trifluoromethyl-pyridin-4-yl)-4H-pyrazolo[1,5-a]quinazoin-5-one] | 205 to 210 °C
Cn1c(=O)c2ccc(N3CC(CO)C3)cc2n2nc(-c3ccnc(C(F)(F)F)c3)cc12 [Example 69, 8-(3-Hydroxymethyl-azetidin-1-yl)-4-methyl-2-(2-trifluoromethyl-pyridin-4-yl)-4H-pyrazolo[1,5-a]quinazolin-5-one] | > 250 °C
Cn1c(=O)c2ccc(N3CCC(C)(O)CC3)cc2n2nc(-c3ccnc(C(F)(F)F)c3)cc12 [Example 71, 8-(4-Hydroxy-4-methyl-piperidin-1-yl)-4-methyl-2-(2-trifluoromethyl-pyridin-4-yl)-4H-pyrazolo[1,5-a]quinazolin-5-one] | > 250 °C
Cc1ccc2c(=O)n(C)c3cc(-c4ccnc(C(F)(F)F)c4)nn3c2c1 [Example 72, 4,8-Dimethyl-2-(2-trifluoromethyl-pyridin-4-yl)-4H-pyrazolo[1,5-a]quinazolin-5-one] | > 250 °C
